Laboratory results: patent US20260364080A1, “PYRAZOLO-PYRIMIDINONE COMPOUNDS FOR USE IN METHODS OF INHIBITING WEE1 A KINASE” (Acrivon Therapeutics, Inc., priority 2023, published 2026)

How the values were obtained:
[1] = biological target: T1, recombinant human Wee1A kinase (Homo sapiens, UniProt P30291); assay: Wee1A kinase binding assay (LanthaScreen Eu time-resolved FRET); conditions: 30 nM tracer 178, 5 nM Wee1A kinase, 2 nM Eu-labeled antibody; 60 minutes at room temperature; read-out: Wee1A kinase Binding IC50
T1 construct: full length Wee1 kinase was expressed by baculovirus in insect cells; purchased Invitrogen PV3817; host or cells: insect cells (baculovirus)
Method in brief: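 Full-length, baculovirus-expressed GST-tagged Wee1A (5 nM) was mixed with 2 nM Eu-anti-GST antibody, 30 nM kinase tracer 178 and compound (1% DMSO). Buffer was 50 mM HEPES pH 7.5, 10 mM MgCl2, 1 mM EGTA, 0.01% Brij-35, incubated 60 min at room temperature. TR-FRET 665/615 nm emission ratios from duplicates were curve-fitted.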

[2] = biological target: T2, Myt1 kinase (recombinant PMYT-1) (Homo sapiens, UniProt Q99640); assay: Myt1 kinase binding assay (LanthaScreen Eu Kinase Binding Assay); conditions: 3 nM tracer 178, 2.5 nM PMYT-1, 1 nM Eu-labeled antibody; read-out: Myt1 kinase Binding IC50
T2 construct: full length PMYT-1 was expressed by baculovirus in insect cells; purchased Invitrogen A30984; host or cells: insect cells (baculovirus)
T2 sequence (Q99640 1-499): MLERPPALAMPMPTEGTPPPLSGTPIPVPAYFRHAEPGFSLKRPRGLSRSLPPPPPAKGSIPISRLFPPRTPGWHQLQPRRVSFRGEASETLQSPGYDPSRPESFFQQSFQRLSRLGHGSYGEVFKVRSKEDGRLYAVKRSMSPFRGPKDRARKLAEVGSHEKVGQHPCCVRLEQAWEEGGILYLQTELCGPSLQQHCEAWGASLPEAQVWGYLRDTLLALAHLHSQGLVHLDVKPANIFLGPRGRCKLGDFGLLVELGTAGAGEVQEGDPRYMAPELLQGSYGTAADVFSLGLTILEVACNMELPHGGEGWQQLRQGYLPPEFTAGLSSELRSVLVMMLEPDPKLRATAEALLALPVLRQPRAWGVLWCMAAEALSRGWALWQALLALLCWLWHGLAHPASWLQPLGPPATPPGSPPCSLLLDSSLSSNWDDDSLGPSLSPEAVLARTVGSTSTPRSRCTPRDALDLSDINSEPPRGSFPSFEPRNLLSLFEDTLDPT
Method in brief: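 The binding affinity of compounds for Myt1 kinase was measured with a LanthaScreen Europium (Eu) Kinase Binding Assay, a time-resolved FRET format in which test compounds compete against a labeled kinase tracer, and the results were expressed as IC50 values describing compound binding to Myt1.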

[3] = biological target: T3, Myt1 kinase (CDK1 Thr14 phosphorylation in DAOY medulloblastoma cells) (Homo sapiens, UniProt Q99640); assay: AlphaLISA assay, Myt1 kinase target engagement (phospho-CDK1 Thr14) in DAOY cells; type: cell-based; conditions: 4 h treatment, read-out: CDK1 Thr14 Phosphorylation EC50
T3 construct: pCDK1 Thr14 AlphaLISA read-out
T3 sequence (Q99640 1-499): T2 sequence (Q99640 1-499)
Description: Each of an ACHN renal cell carcinoma cell line (ATCC) and a DAOY medulloblastoma cell line, and an A427 lung cancer line were cultured in Minimum Essential Medium Eagle supplemented with 10% fetal calf serum (Sigma), 1% Penicillin-Streptomycin and 10 mM HEPES buffer (HyClone). Cell cultures were kept in a humidified incubator at 37 °C and 5% CO2. Cells were routinely tested for Mycoplasma contamination.
For target engagement assessment of Myt1 kinase inhibition, quantification of Cdk1 phosphorylated on threonine 14 was detected using the AlphaLISA® SureFire® Ultra™ Human Phospho-CDK1 (Thr14) assay (Perkin Elmer). DAOY or ACHN cells were seeded into tissue culture treated 96-well plates (VWR) to a density of 10,000 or 20,000 cells per well respectively. 24 h post seeding cells were treated for 4 h with compounds at concentrations ranging from 7 to 5000 nM. Cells were washed with PBS and lysed in 50 μl AlphaLISA lysis buffer before freezing at −80 C. Ten ul of the lysate was transferred to 384 well plates and incubated with AlphaLISA donor and acceptor beads according to the manufacturer's instructions. Dose response curves and EC50 values were calculated and visualized using GraphPad Prism version 9. Target engagement for Myt1 kinase can also be measured using the same AlphaLISA assay in OVCAR3 cells, an ovarian cancer cell line. NIH:OVCAR-3 (OVCAR3) cells are cultured in RPMI-1640 medium supplemented with 0.01 mg/ml insulin, 20% FBS, 1% Penicillin-Streptomycin and 10 mM HEPES buffer. 14,000 cells per well are seeded into 96 well tissue culture plates in full medium. Twenty-four hours post seeding, cells are treated with compound for 4 hours at concentrations ranging from 0.017 nM to 1000 nM.

[4] = biological target: T4, Wee1A kinase (CDK1 Tyr15 phosphorylation in ACHN renal cell carcinoma cells) (Homo sapiens, UniProt P30291); assay: High-content imaging of pCdk1 Y15, Wee1A kinase target engagement in ACHN cells; type: cell-based; conditions: 4 h treatment, nuclear positivity for pCdk1 Y15 vs DMSO control, read-out: CDK1 Tyr15 Phosphorylation EC50
T4 construct: pCDK1 Tyr15 immunofluorescence read-out
Method in brief: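 ACHN cells exposed to compound for 4 h over 7–5,000 nM or 0.3–200 nM, then fixed and immunostained for pCDK1 Y15 with DAPI nuclear counterstain. The percentage of pCdk1 Y15 nucleus-positive cells relative to DMSO control was imaged per well; EC50 from dose-response curves.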

ACHN cells = assay: Cell Titer Glo viability assay, ACHN cells; type: cell-based; conditions: Homo sapiens, 144 h, absolute EC50
Method in brief: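 Cells grown in MEM with 10% FCS were seeded at 500 (A427), 400 (ACHN) or 250 (DAOY) per well and treated the next day with compound at 17 to 10 000 nM. Viability relative to untreated control was read at 144 h by CellTiter-Glo 2.0.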

T4 sequence (P30291 whole entry): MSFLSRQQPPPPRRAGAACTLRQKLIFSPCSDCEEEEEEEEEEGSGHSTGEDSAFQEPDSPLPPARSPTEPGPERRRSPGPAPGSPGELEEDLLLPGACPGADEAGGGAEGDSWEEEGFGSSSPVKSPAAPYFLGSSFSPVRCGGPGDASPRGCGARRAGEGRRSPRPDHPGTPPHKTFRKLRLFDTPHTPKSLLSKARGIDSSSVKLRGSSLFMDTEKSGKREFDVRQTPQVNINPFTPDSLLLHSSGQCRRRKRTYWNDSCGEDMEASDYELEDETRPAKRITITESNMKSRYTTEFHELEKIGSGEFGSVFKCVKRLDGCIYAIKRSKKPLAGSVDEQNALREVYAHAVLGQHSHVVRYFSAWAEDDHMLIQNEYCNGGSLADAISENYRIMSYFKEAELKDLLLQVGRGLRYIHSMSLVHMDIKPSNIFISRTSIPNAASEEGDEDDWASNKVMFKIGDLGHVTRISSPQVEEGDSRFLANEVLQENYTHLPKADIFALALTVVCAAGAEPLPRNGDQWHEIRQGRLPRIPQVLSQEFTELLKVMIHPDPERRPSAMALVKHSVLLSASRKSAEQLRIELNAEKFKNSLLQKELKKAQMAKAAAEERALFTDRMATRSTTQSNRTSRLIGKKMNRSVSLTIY
T1 sequence (P30291 whole entry): as above

Structure (SMILES)	IC50 [1] [nM]	IC50 [2] [nM]	EC50 [3] [nM]	EC50 [4] [nM]	EC50 (ACHN cells) [nM]
C=CCn1c(=O)c2cnc(Nc3cnn(C)c3)nc2n1-c1cccc(OC2CC3CCCC(C2)N3C)n1 (stereo not shown) [Compound 194, 2-allyl-1-{6-(9-methyl-9-azabicyclo[3.3.1]non-3-yloxy)-2-pyridyl}-6-(1-methyl-4-pyrazolylamino)-1,2-dihydro-3H-1,2,5,7-tetraazainden-3-one]	< 10	< 20	> 1000	100 to 500	
C=CCn1c(=O)c2cnc(Nc3ccc4sncc4c3)nc2n1-c1cccc(OC2CCNCC2)n1 [Compound 228, 2-allyl-6-(1,2-benzisothiazol-5-ylamino)-1-[6-(4-piperidyloxy)-2-pyridyl]-1,2-dihydro-3H-1,2,5,7-tetraazainden-3-one]	< 10	< 20	> 1000	100 to 500	
C=CCn1c(=O)c2cnc(Nc3cccnc3)nc2n1-c1cccc(OC2CCNCC2)n1 [Compound 230, 2-allyl-1-[6-(4-piperidyloxy)-2-pyridyl]-6-(3-pyridylamino)-1,2-dihydro-3H-1,2,5,7-tetraazainden-3-one]	< 10	< 20	> 1000	> 1000	
C=CCn1c(=O)c2cnc(Nc3ccc4oc(C)nc4c3)nc2n1-c1cccc(OC2CCNCC2)n1 [Compound 232, 2-allyl-6-(2-methyl-1,3-benzoxazol-5-ylamino)-1-[6-(4-piperidyloxy)-2-pyridyl]-1,2-dihydro-3H-1,2,5,7-tetraazainden-3-one]	< 10	< 20	200 to 500	< 100	
C=CCn1c(=O)c2cnc(Nc3ccc4nccnc4c3)nc2n1-c1cccc(OC2CCN(C)CC2)n1 [Compound 241, 2-allyl-1-[6-(1-methyl-4-piperidyloxy)-2-pyridyl]-6-(6-quinoxalinylamino)-1,2-dihydro-3H-1,2,5,7-tetraazainden-3-one]	< 10	< 20	200 to 500		≤ 100
C=CCn1c(=O)c2cnc(Nc3ccc(N4CCSCC4)cc3)nc2n1-c1cccc(OC2CCN(C)CC2)n1 [Compound 261, 2-allyl-1-[6-(1-methyl-4-piperidyloxy)-2-pyridyl]-6-[p-(1,4-thiazinan-4-yl)phenylamino]-1,2-dihydro-3H-1,2,5,7-tetraazainden-3-one]	< 10	< 20	200 to 500		≤ 100
C=CCn1c(=O)c2cnc(Nc3ccc4c(cnn4C(C)C)c3)nc2n1-c1cccc(OC2CCNCC2)n1 [Compound 265, 2-allyl-6-(1-isopropyl-1H-indazol-5-ylamino)-1-[6-(4-piperidyloxy)-2-pyridyl]-1,2-dihydro-3H-1,2,5,7-tetraazainden-3-one]	< 10	< 20	200 to 500	< 100	
C=CCn1c(=O)c2cnc(Nc3ccc4cnoc4c3)nc2n1-c1cccc(OC2CCN(C)CC2)n1 [Compound 299, 2-allyl-6-(1,2-benzisoxazol-6-ylamino)-1-[6-(1-methyl-4-piperidyloxy)-2-pyridyl]-1,2-dihydro-3H-1,2,5,7-tetraazainden-3-one]	< 10	20 to 100	> 1000	500 to 1000	
C=CCn1c(=O)c2cnc(Nc3ccc4nc(C)oc4c3)nc2n1-c1cccc(OC2CCNCC2)n1 [Compound 316, 2-allyl-6-(2-methyl-1,3-benzoxazol-6-ylamino)-1-[6-(4-piperidyloxy)-2-pyridyl]-1,2-dihydro-3H-1,2,5,7-tetraazainden-3-one]	< 10	20 to 100		< 100	100 to 500
C=CCn1c(=O)c2cnc(Nc3ccc(F)cc3)nc2n1-c1cccc(OC2CCCN(C)CC2)n1 (stereo not shown) [Compound 317, 2-allyl-6-(p-fluorophenylamino)-1-[6-(1-methyl-4-azepanyloxy)-2-pyridyl]-1,2-dihydro-3H-1,2,5,7-tetraazainden-3-one]	< 10	20 to 100		100 to 500	100 to 500
CCn1c(=O)c2cnc(Nc3ccc4c(c3)ncn4C)nc2n1-c1cccc(OC2CCNCC2)n1 [Compound 318, 2-ethyl-6-((1-methyl-1H-benzo[d]imidazol-5-yl)amino)-1-(6-(piperidin-4-yloxy)pyridin-2-yl)-1,2-dihydro-3H-pyrazolo[3,4-d]pyrimidin-3-one]	< 10	20 to 100		> 1000	> 1000
C=CCn1c(=O)c2cnc(Nc3ccc4c(cnn4C)c3)nc2n1-c1cccc(O[C@H]2CCCN(C)C2)n1 [Compound 332, 1-{6-[(S)-1-methyl-3-piperidyloxy]-2-pyridyl}-2-allyl-6-(1-methyl-1H-indazol-5-ylamino)-1,2-dihydro-3H-1,2,5,7-tetraazainden-3-one]	< 10	100 to 500		< 100	100 to 500
[2H]C([2H])([2H])c1cccc(Nc2ncc3c(=O)n(CC=C)n(-c4cccc(OC5CCNCC5)n4)c3n2)c1 [Compound 334, 2-allyl-6-((3-(methyl-d3)phenyl)amino)-1-(6-(piperidin-4-yloxy)pyridin-2-yl)-1,2-dihydro-3H-pyrazolo[3,4-d]pyrimidin-3-one]	< 10	20 to 100		< 100	≤ 100
Cn1ccc2cc(Nc3ncc4c(=O)n(C)n(-c5cccc(OC6CCNCC6)n5)c4n3)ccc21 [Compound 336, 2-methyl-6-((1-methyl-1H-indol-5-yl)amino)-1-(6-(piperidin-4-yloxy)pyridin-2-yl)-1,2-dihydro-3H-pyrazolo[3,4-d]pyrimidin-3-one]	< 10	20 to 100		< 100	100 to 500
C=CCn1c(=O)c2cnc(Nc3ccc(N4CCS(=O)(=O)CC4)cc3)nc2n1-c1cccc(OC2CCN(C)CC2)n1 [Compound 369, 4-(p-{2-allyl-1-[6-(1-methyl-4-piperidyloxy)-2-pyridyl]-3-oxo-1,2-dihydro-3H-1,2,5,7-tetraazainden-6-ylamino}phenyl)-1λ^6,4-thiazinane-1,1-dione]	< 10	< 20	> 1000	< 100	
C=CCn1c(=O)c2cnc(Nc3ccc(OCCCF)cc3)nc2n1-c1cccc(OC2CCNCC2)n1 [Compound 377]	< 10	< 20		< 100	≤ 100
